Results on 46 compounds are retold here after ChEMBL document CHEMBL4385608, “5-Aryl-1,3,4-oxadiazol-2-ylthioalkanoic Acids: A Highly Potent New Class of Inhibitors of Rho/Myocardin-Related Transcription Factor (MRTF)/Serum Response Factor (SRF)-Mediated Gene Transcription as Potential Antifibrotic Agents for Scleroderma” (J Med Chem, 2019).

Values after ≈ are worked out from the molar mass of the structure shown. Active and inactive are the calls of the source. The calls are words filed in the database; no cut-off is given here.

Series [1] in a line: Inhibition of Rho/MRTF/SRF pathway (unknown origin) expressed in HEK293T cells assessed as reduction in Galpha12-stimulated MRTF-selective SRE.L promoter-driven luciferase activity after overnight incubation by luminescence assay. Format: cell-based, Homo sapiens.
The next series concerns HEK-293T. Put plainly: Cytotoxicity against HEK293T cells assessed as reduction in cell viability up to 100 uM by WST-1 assay relative to control. Format: cell-based. As to conditions: human.
Series [2] can be described thus: Inhibition of Rho/MRTF/SRF pathway (unknown origin) expressed in human PC3 cells assessed as reduction in Galpha12 Q231L-stimulated MRTF-selective SRE.L promoter-driven luciferase activity after overnight incubation by luminescence assay. Format: cell-based.
In another series the test system is PC-3. Put plainly: Cytotoxicity against human PC3 cells assessed as reduction in cell viability up to 100 uM by WST-1 assay relative to control. Format: cell-based.
Series [3] has as its system Mus musculus. Put plainly: Antifibrotic activity in bleomycin-induced mouse model of dermal fibrosis assessed as decrease in hydroxyproline content administered daily via oral gavage for 14 days measured post-last dose. Format: functional, organism-based.
Series [4] relates to Mus musculus. As to the kind of experiment: Antifibrotic activity in bleomycin-induced mouse model of dermal fibrosis assessed as decrease in dermal thickness administered daily via oral gavage for 14 days measured post-last dose by Masson's trichrome-staining based microscopic method. Format: functional, organism-based.
Series [5] can be described thus: Half-life in CD-1 mouse liver microsomes at 1 uM in presence of NADPH by LC-MS/MS analysis. Format: ADME, Microsome.
A short description of series [6]: Thermodynamic solubility of the compound. Format: physicochemical. As to conditions: read-out: Therm_solubility.
Series [7] in a line: Half-life in CD-1 mouse at 15 mg/kg, iv by LC-MS/MS analysis. Format: ADME, organism-based. As to conditions: in vivo.
A short description of series [8]: Half-life in CD-1 mouse at 30 mg/kg, po by LC-MS/MS analysis. Format: ADME, organism-based. As to conditions: in vivo.
Series [9] in a line: AUC in CD-1 mouse at 15 mg/kg, iv by LC-MS/MS analysis. Format: ADME, organism-based. As to conditions: in vivo.
A short description of series [10]: AUC in CD-1 mouse at 30 mg/kg, po by LC-MS/MS analysis. Format: ADME, organism-based. As to conditions: in vivo.
Series [11] can be described thus: Clearance in CD-1 mouse at 15 mg/kg, iv by LC-MS/MS analysis. Format: ADME, organism-based. As to conditions: in vivo.
Series [12] in a line: Cmax in CD-1 mouse at 15 mg/kg, iv by LC-MS/MS analysis. Format: ADME, organism-based. Set-up: dose 15 mg/kg, route intravenous. As to conditions: in vivo.
A short description of series [13]: Cmax in CD-1 mouse at 30 mg/kg, po by LC-MS/MS analysis. Format: ADME, organism-based. As to conditions: in vivo. On the set-up: dose 30 mg/kg, route oral.
Series [14] can be described thus: Oral bioavailability in CD-1 mouse at 30 mg/kg by LC-MS/MS analysis. Format: ADME, organism-based. As to conditions: in vivo.
The species entered for series [15] is Homo sapiens. Put plainly: Inhibition of Rho/MRTF/SRF pathway in human primary dermal fibroblasts assessed as reduction in LPA-stimulated CTGF mRNA expression preincubated for 48 hrs followed by LPA stimulation and measured after 1 hr by qPCR analysis.
For series [16], the species on record is Homo sapiens. Put plainly: Inhibition of Rho/MRTF/SRF pathway in human primary dermal fibroblasts assessed as reduction in LPA-stimulated CTGF mRNA expression preincubated for 72 hrs followed by LPA stimulation and measured after 1 hr by qPCR analysis.

As to `CCCc1ccc(-c2nnc(SCCCC(=O)O)o2)c(Cl)c1`, the IC50 in series [1] is under 0.0001 nM. In addition, the Activity in the series on HEK-293T was under 5%.

With `O=C(O)CCCSc1nnc(-c2cccc(C3CC3)c2Cl)o1`, the IC50 in series [1] was determined as 0.019 nM. For the same compound, the Activity with HEK-293T is listed as under 5%.

On to `O=C(O)CCSc1nnc(-c2ccncc2)o1`, for which, in [2], the IC50 is over 100000 nM.

`O=C(O)CCCc1nnc(-c2ccc(Cl)cc2Cl)o1`: the half-maximal inhibitory concentration (IC50) in series [1] is over 100000 nM.

As to `Cc1ccccc1-c1nnc(SCCC(=O)O)o1`, the IC50 in [2] was found to be 6300 nM. The Activity in the series on PC-3 was under 5%.

For the compound `COc1ccccc1-c1nnc(SCCC(=O)O)o1`, the IC50 in series [2] was 3100 nM. Further, in the series on PC-3, the Activity was under 5%.

As to `CC(C)c1ccc(-c2nnc(SCCCC(=O)O)o2)c(Cl)c1`, the IC50 in [1] turned out to be 0.0007 nM. For the same compound, the Activity in the series on HEK-293T is on record as under 5%.

With `Cc1ccc(-c2nnc(SCCC(=O)O)o2)c(Cl)c1C`, in series [1], the IC50 was determined as 0.02 nM. For the same compound, in the series on HEK-293T, the Activity is on record as under 5%.

Consider `COc1cccc(-c2nnc(SCCC(=O)O)o2)c1`, for which the IC50 in series [2] amounted to 3600 nM. The Activity in the series with PC-3 was under 5%.

For the compound `O=C(O)CSc1nnc(-c2ccc(Cl)cc2Cl)o1`, the Activity with PC-3 is recorded as under 5%.

For `O=C(O)CCSc1nnc(-c2ccc(Cl)cc2Cl)o1`, the Activity result in the series on Mus musculus [3] is “Dose-dependent effect”; in the series with Mus musculus [4], “Dose-dependent effect”; with PC-3 it was under 5%; in the series with HEK-293T, under 5%. Moreover, the IC50 in series [2] came out at 4 nM; in series [1], 2 nM. Moreover, the values for the t1/2 in [5] and in series [7] were over 60 min and 2 h, respectively. For the same compound, the solubility thermodynamic in [6] amounted to 682 µM (≈ 218 µg/mL). Further, the half-life in series [8] is 120 min. In addition, the exposure (AUC) in series [9] stood at 47400 ng·h/mL; in series [10] it was 63200 ng·h/mL. The clearance in series [11] is 5.3 mL/min/kg. Besides, the maximum concentration (Cmax) in series [12] turned out to be 88.5 µg/mL; in series [13] it was 34000 ng/mL. The bioavailability in [14] worked out at 67%. The inhibition entry in the series filed under Homo sapiens [15] is “inactive”. The inhibition entry in the series listed under Homo sapiens [16] is “Dose-dependent effect”.

As for `O=C(O)CCSc1nnc(-c2ccccc2)o1`, the 50% inhibitory concentration (IC50) in series [2] is 3500 nM. For the same compound, in the series with PC-3, the Activity is recorded as under 5%.

As for `O=C(O)CCCSc1nnc(-c2cc(C3CC3)ccc2Cl)o1`, the IC50 in series [1] was 20 nM. Moreover, the Activity in the series with HEK-293T is reported as under 5%.

Take `O=C(O)CCCCSc1nnc(-c2ccc(Cl)cc2Cl)o1`: the Activity with PC-3 is reported as under 5%.

`O=C(O)CCSc1nnc(-c2cccc(Cl)c2)o1`: the concentration for half-maximal inhibition (IC50) in series [2] is 1500 nM. Besides, the Activity with PC-3 is given as under 5%.

On to `O=C(O)CCSc1nc(-c2ccccc2)cc(=O)[nH]1`, for which the IC50 in series [2] is over 100000 nM.

On to `O=C(O)CCCSc1nnc(-c2ccc(Br)cc2Cl)o1`, for which the IC50 in [1] was 0.07 nM. In addition, the Activity in the series with HEK-293T is listed as under 5%.

As to `CCc1ccc(-c2nnc(SCCCC(=O)O)o2)c(Cl)c1`, the IC50 in [1] was 0.0007 nM. Further, in the series on HEK-293T, the Activity was under 5%.

As to `Cc1cc(-c2nnc(SCCC(=O)O)o2)c(Cl)cc1Cl`, the IC50 in [1] is 0.32 nM. For the same compound, in the series with HEK-293T, the Activity was under 5%.

As for `O=C(O)CCCSc1nnc(-c2ccc(OC3COC3)cc2Cl)o1`, the IC50 in series [1] stood at 370 nM. The Activity in the series with HEK-293T is listed as under 5%.

With `O=C(O)CCCSc1nnc(-c2ccc(C(F)(F)F)cc2)o1`, in series [1], the IC50 is 46 nM. Moreover, the Activity in the series on HEK-293T was under 5%.

Turning to `O=C(O)CCSc1nnc(-c2ccccc2Cl)o1`, the 50% inhibitory concentration (IC50) in series [2] was determined as 25 nM. The Activity in the series on PC-3 was under 5%.

On to `COc1ccc(-c2nnc(SCCC(=O)O)o2)cc1`, for which the IC50 in series [2] turned out to be 160 nM. In the series with PC-3, the Activity is under 5%.

For the compound `O=C(O)CCCSc1nnc(-c2ccccc2C(F)(F)F)o1`, the IC50 in series [1] was 10000 nM. For the same compound, the Activity with HEK-293T was under 5%.

On to `Cc1cccc(-c2nnc(SCCC(=O)O)o2)c1`, for which, in series [2], the IC50 is 180 nM. For the same compound, in the series on PC-3, the Activity is reported as under 5%.

As to `CC(C)(F)c1ccc(-c2nnc(SCCCC(=O)O)o2)c(Cl)c1`, the IC50 in [1] worked out at 0.5 nM. Further, the Activity in the series on HEK-293T is under 5%.

Turning to `O=C(O)CCSc1nc2ccccc2n1Cc1ccccc1`, in series [2], the IC50 was over 100000 nM.

On to `c1ccc(-c2nnc(SCCC3OCCCO3)o2)cc1`, for which, in series [2], the 50% inhibitory concentration (IC50) was over 100000 nM.

As to `CCOC(=O)CCSc1nnc(-c2ccc(Cl)cc2Cl)o1`, the IC50 in [2] was 2.6 nM. For the same compound, the Activity in the series with PC-3 was under 5%.

`O=C(O)CSCc1nnc(-c2ccc(Cl)cc2Cl)o1`: the IC50 in [1] came to 11500 nM.

For the compound `O=C(O)CCCSc1nnc(-c2ccc(OC3CC3)cc2Cl)o1`, the IC50 in [1] amounted to 1.3 nM. Besides, the t1/2 in series [5] is reported as over 60 min. Also, in the series with HEK-293T, the Activity was under 5%.

Turning to `Cc1ccc(-c2nnc(SCCCC(=O)O)o2)c(Cl)c1`, the 50% inhibitory concentration (IC50) in series [2] came to 0.1 nM. The Activity in the series on PC-3 was under 5%. In addition, the t1/2 in series [5] came out at 28 min.

In the case of `COc1ccc(-c2nnc(SCCC(=O)O)o2)c(Cl)c1`, the concentration for half-maximal inhibition (IC50) in series [2] was 2.6 nM. For the same compound, the Activity in the series on PC-3 was under 5%.

Take `O=C(O)CCCS(=O)(=O)c1nnc(-c2ccc(Cl)cc2Cl)o1`: in series [1], the 50% inhibitory concentration (IC50) was over 100000 nM.

As for `O=C(O)CCSc1nnc(-c2cccnc2)o1`, the concentration for half-maximal inhibition (IC50) in [2] came to 87000 nM.

For `Cc1cc(Cl)c(-c2nnc(SCCC(=O)O)o2)cc1C`, the IC50 in series [1] was found to be 0.23 nM. Further, in the series with HEK-293T, the Activity is under 5%.

Turning to `O=C(O)CCCSc1nnc(-c2ccc(C(F)(F)F)cc2Cl)o1`, in series [1], the IC50 was 0.06 nM. The t1/2 in series [5] is recorded as over 60 min. Further, the Activity in the series on HEK-293T is given as under 5%.

On to `Cc1occc1-c1nnc(SCCC(=O)O)o1`, for which the IC50 in [2] is over 100000 nM.

`CNC(=O)CCSc1nnc(-c2ccc(Cl)cc2Cl)o1`: the Activity with PC-3 is reported as under 5%.

Regarding `O=C(O)CCSc1nnc(-c2ccc(Cl)cc2)o1`, the IC50 in series [2] amounted to 340 nM. In addition, the Activity in the series on PC-3 is under 5%.

With `Cc1ccc(-c2nnc(SCCC(=O)O)o2)c(Cl)c1`, the IC50 in [2] turned out to be 1.5 nM. The Activity in the series on PC-3 is under 5%.

`Cc1ccc(-c2nnc(SCCC(=O)O)o2)cc1`: the IC50 in [2] stood at 34 nM. Besides, the Activity in the series on PC-3 was under 5%.

In the case of `O=C(O)CCCOc1nnc(-c2ccc(Cl)cc2Cl)o1`, the IC50 in series [1] was over 100000 nM.

As for `COc1ccc(-c2nnc(SCCCC(=O)O)o2)c(Cl)c1`, the concentration for half-maximal inhibition (IC50) in [1] is 2 nM. In addition, in the series on HEK-293T, the Activity is under 5%.

On to `COc1ccc(-c2nnc(SCCC(=O)O)n2C)cc1`, for which the IC50 in [2] was over 100000 nM.

For the compound `O=C(O)CCCSc1nnc(-c2ccc(-c3ccccc3)cc2Cl)o1`, the IC50 in [1] is 25 nM. In addition, the Activity in the series with HEK-293T is recorded as under 5%.
